Values joined by “and” are separate entries in the source; they are usually repeats but may differ in a detail not shown here. Equal values may be shown once.
Key:
Assay in all cases: In-cell proteome-wide competitive ABPP, HEK293: other DUBs and proteins
[1] = target: DUBs and other proteins in HEK293 cells (Homo sapiens, UniProt Q92905); details: for Log2 reporter intensity values, COPS5: TMT replicates; for Log2 reporter intensity values: COPS5: competition with ABP 2, DMSO substract (FC); for Log2 reporter intensity values: COPS5 / Log2 reporter intensity values: replicates A-C; for Log2 t-test Difference / Log2 reporter intensity values: COPS5
DUBs and other proteins in HEK293 cells (Homo sapiens, UniProt Q92905), sequence (Q92905 whole entry): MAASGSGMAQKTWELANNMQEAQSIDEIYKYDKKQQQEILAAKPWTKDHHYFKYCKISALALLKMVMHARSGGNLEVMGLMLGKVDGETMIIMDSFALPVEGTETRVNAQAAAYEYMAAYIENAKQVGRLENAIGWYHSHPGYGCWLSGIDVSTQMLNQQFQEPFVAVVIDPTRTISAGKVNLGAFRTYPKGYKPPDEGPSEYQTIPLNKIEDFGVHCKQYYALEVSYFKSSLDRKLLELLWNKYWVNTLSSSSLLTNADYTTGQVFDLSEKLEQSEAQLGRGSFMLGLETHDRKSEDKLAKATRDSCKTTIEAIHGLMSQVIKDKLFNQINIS

[2] = target: DUBs and other proteins in HEK293 cells (Homo sapiens, UniProt Q93008); details: replicates A-C; for Log2 reporter intensity values: USP9X;USP9Y: competition with ABP 2, DMSO substract (FC); for Log2 reporter intensity values: USP9X;USP9Y, DMSO subtracted
DUBs and other proteins in HEK293 cells (Homo sapiens, UniProt Q93008), sequence (Q93008 whole entry): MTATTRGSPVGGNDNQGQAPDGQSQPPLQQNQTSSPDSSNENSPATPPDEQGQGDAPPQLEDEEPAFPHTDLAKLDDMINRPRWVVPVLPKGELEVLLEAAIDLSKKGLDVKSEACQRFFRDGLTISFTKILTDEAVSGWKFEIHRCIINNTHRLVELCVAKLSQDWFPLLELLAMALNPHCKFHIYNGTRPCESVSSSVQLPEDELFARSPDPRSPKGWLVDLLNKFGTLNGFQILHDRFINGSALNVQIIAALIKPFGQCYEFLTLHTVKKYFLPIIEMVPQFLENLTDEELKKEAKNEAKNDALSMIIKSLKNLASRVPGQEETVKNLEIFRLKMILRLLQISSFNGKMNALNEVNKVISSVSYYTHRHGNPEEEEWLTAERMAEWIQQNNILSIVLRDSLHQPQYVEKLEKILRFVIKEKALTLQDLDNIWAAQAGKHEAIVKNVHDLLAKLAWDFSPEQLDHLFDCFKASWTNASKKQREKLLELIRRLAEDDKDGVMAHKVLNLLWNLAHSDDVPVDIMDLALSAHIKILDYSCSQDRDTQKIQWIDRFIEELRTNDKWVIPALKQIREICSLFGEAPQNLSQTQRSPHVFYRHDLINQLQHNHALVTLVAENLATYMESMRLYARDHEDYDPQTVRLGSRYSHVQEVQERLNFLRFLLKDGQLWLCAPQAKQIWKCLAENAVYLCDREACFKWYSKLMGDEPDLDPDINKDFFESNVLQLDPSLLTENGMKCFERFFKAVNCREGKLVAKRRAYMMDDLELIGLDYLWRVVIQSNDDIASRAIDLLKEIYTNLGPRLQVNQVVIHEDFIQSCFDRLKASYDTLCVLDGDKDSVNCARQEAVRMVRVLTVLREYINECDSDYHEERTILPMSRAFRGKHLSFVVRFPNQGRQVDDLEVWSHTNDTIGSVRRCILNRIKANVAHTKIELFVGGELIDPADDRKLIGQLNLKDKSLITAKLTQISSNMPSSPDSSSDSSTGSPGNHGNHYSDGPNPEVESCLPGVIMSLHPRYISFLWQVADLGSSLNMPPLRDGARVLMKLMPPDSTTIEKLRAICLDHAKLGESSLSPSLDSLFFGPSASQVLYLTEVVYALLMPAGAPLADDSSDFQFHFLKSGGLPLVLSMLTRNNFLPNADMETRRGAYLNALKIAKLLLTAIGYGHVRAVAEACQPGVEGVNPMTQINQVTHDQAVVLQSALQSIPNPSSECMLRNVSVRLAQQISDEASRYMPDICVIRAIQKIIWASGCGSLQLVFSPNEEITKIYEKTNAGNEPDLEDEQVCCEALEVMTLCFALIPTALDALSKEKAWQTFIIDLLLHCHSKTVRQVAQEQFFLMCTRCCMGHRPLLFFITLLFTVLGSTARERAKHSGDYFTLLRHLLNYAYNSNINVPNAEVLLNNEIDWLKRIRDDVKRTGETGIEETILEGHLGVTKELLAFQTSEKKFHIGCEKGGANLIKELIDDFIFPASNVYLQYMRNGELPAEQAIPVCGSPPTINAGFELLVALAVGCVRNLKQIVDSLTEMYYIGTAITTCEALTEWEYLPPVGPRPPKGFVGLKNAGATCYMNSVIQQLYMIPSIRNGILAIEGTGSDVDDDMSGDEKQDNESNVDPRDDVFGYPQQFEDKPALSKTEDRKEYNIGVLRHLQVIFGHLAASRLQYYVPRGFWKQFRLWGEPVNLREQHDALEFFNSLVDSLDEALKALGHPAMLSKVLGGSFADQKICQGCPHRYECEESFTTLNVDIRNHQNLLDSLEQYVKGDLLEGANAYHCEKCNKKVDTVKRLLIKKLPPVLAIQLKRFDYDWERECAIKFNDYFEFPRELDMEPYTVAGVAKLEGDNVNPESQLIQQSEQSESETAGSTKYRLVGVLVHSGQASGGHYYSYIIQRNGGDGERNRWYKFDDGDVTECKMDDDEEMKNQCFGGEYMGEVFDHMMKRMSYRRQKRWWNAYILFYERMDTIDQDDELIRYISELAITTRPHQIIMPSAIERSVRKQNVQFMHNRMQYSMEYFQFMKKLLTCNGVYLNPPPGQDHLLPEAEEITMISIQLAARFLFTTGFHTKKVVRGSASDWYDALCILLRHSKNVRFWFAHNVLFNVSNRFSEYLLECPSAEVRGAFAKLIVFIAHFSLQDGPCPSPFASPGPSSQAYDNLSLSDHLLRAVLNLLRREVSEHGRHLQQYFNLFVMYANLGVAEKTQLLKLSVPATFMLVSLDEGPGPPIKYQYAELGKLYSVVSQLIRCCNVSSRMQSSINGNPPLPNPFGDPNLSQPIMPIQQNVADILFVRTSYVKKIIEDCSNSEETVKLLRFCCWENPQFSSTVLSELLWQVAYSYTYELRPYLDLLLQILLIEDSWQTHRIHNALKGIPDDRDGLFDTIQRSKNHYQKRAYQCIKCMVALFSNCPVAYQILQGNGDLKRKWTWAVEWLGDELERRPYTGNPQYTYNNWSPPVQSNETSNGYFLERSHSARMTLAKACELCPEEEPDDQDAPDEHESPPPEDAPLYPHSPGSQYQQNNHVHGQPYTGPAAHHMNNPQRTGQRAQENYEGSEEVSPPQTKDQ

[3] = target: DUBs and other proteins in HEK293 cells (Homo sapiens, UniProt Q6P2Q9); details: replicates A-C; for Log2 reporter intensity values: PRPF8: competition with ABP 2, DMSO substract (FC); for Log2 reporter intensity values: PRPF8, DMSO subtracted
[4] = target: DUBs and other proteins in HEK293 cells (Homo sapiens, UniProt Q7L5N1); details: for Log2 reporter intensity values, COPS6: TMT replicates; for Log2 reporter intensity values: COPS6: competition with ABP 2, DMSO substract (FC); for Log2 reporter intensity values: COPS6 / Log2 reporter intensity values: replicates A-C; for Log2 t-test Difference / Log2 reporter intensity values: COPS6
DUBs and other proteins in HEK293 cells (Homo sapiens, UniProt Q7L5N1), sequence (Q7L5N1 whole entry): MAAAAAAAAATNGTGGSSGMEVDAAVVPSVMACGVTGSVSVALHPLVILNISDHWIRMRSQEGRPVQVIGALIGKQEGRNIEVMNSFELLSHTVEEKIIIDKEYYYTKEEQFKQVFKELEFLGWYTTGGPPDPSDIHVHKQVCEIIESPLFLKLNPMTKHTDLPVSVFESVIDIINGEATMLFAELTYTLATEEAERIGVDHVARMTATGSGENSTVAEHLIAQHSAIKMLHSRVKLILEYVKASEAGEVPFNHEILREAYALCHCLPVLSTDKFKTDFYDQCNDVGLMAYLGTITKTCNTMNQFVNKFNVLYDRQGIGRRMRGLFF

[5] = target: DUBs and other proteins in HEK293 cells (Homo sapiens, UniProt P54578); details: replicates A-C; for Log2 reporter intensity values: USP14: competition with ABP 2, DMSO substract (FC); for Log2 reporter intensity values: USP14, DMSO subtracted
DUBs and other proteins in HEK293 cells (Homo sapiens, UniProt P54578), sequence (P54578 whole entry): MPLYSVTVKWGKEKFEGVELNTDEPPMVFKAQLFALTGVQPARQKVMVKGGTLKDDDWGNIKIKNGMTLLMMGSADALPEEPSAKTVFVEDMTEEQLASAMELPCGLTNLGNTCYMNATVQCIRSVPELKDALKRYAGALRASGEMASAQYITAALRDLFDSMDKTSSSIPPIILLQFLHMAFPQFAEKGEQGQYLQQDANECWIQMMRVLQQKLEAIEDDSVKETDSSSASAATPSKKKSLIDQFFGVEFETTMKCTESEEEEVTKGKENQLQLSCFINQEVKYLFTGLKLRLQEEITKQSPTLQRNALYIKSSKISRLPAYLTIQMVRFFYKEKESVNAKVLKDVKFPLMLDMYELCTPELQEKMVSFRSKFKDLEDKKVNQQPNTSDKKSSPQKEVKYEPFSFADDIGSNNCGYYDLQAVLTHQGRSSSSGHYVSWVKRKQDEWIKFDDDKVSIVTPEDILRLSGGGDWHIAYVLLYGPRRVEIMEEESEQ

[6] = target: DUBs and other proteins in HEK293 cells (Homo sapiens, UniProt O00487); details: replicates A-C; for Log2 reporter intensity values: PSMD14: competition with ABP 2, DMSO substract (FC); for Log2 reporter intensity values: PSMD14, DMSO subtracted
DUBs and other proteins in HEK293 cells (Homo sapiens, UniProt O00487), sequence (O00487 whole entry): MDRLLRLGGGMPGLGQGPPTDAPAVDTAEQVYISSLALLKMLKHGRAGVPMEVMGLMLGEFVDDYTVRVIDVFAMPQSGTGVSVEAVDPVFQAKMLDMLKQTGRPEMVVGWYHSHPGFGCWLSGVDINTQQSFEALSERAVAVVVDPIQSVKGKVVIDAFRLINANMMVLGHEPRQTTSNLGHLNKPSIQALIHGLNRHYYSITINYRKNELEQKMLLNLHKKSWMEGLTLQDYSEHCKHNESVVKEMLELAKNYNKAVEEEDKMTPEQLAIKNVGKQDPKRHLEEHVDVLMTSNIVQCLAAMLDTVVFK

[7] = target: T1, DUBs and other proteins in HEK293 cells (Homo sapiens, UniProt Q96RU2); details: replicates A-C; for Log2 reporter intensity values: USP28: competition with ABP 2, DMSO substract (FC); for Log2 reporter intensity values: USP28, DMSO subtracted
T1 sequence (Q96RU2 1-1077): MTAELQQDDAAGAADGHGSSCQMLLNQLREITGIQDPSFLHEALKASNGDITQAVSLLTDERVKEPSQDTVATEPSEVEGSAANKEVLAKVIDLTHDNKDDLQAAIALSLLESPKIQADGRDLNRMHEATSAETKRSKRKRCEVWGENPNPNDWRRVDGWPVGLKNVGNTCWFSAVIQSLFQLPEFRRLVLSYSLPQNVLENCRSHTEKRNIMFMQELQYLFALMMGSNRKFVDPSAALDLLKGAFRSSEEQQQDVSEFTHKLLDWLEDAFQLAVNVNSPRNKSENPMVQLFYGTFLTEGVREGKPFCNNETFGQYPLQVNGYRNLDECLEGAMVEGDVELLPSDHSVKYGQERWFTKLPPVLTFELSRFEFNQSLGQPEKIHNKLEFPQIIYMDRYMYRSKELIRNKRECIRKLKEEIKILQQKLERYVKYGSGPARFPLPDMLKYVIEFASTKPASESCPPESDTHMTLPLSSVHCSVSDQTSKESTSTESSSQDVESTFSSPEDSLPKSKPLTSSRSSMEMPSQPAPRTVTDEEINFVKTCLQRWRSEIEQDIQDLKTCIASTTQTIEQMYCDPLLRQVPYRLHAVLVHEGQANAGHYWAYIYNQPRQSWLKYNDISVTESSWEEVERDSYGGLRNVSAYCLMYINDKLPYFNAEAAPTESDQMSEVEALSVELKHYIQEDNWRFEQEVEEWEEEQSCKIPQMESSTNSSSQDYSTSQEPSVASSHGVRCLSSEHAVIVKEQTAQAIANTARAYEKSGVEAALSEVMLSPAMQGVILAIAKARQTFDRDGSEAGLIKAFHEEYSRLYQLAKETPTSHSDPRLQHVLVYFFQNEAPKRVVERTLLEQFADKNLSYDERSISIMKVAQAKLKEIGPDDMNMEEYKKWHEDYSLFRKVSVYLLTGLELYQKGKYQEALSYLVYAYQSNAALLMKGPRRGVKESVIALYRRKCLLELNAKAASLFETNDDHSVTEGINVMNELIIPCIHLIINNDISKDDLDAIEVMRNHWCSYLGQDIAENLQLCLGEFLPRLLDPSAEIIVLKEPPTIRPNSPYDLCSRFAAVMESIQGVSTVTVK

[8] = 1 μM 1 (60 min) + 20 nM ABP 2 (10 min), All values
[9] = 1 μM 1 (60 min) + 20 nM ABP 2 (10 min), DMSO subtracted
[10] = 4 μM 1 (60 min) + 20 nM ABP 2 (10 min), All values
[11] = 4 μM 1 (60 min) + 20 nM ABP 2 (10 min), DMSO subtracted

N#CN1CCC[C@H]1C(=O)N1CCc2c(-c3c[nH]c4ncccc34)cccc21 [Compound 1]
Log2 reporter intensity values, COPS5 [1, 8]: -0.01371 and -0.03292 and 0.07504 | Log2 reporter intensity values, COPS5 [1, 9]: 0.04441 and 0.02519 and 0.1332 | Log2 reporter intensity values, COPS5 [1, 10]: 0.02465 and -0.01344 and 0.1212 | Log2 reporter intensity values, COPS5 [1, 11]: 0.08277 and 0.04467 and 0.1793 | Log2 reporter intensity values: COPS5 ([1]; 1 at 1 μM): 1.031 and 1.018 and 1.097 | Log2 reporter intensity values: COPS5 ([1]; 1 at 4 μM): 1.059 and 1.031 and 1.132 | Log2 t-test Difference ([1]; 1 - 1 μM): -0.09474 | Log2 t-test Difference ([1]; 1 - 4 μM): -0.06006 | Log2 reporter intensity values ([1]; 1_1 μM, DMSO subtracted): 0.03118 and 0.01753 and 0.09661 | Log2 reporter intensity values ([1]; 1_4 μM, DMSO subtracted): 0.05896 and 0.03137 and 0.1323 | Log2 reporter intensity values ([1]; 1 at 1 μM, DMSO subtracted): 0.04441 and 0.02519 and 0.1332 | Log2 reporter intensity values ([1]; 1 at 4 μM, DMSO subtracted): 0.08277 and 0.04467 and 0.1793 | Log2 reporter intensity values: USP9X;USP9Y ([2]; 1 at 1 μM): 1.022 (2×) and 0.9739 | Log2 reporter intensity values: USP9X;USP9Y ([2]; 1 at 4 μM): 0.949 and 1.006 and 0.9815 | Log2 reporter intensity values ([2]; 1_1 μM): 0.0219 and 0.02206 and -0.02613 | Log2 reporter intensity values ([2]; 1_4 μM): -0.05104 and 0.005497 and -0.01849 | Log2 reporter intensity values ([2]; 1 at 1 μM): 0.0313 and 0.03153 and -0.03815 | Log2 reporter intensity values ([2]; 1 at 4 μM): -0.07554 and 0.007953 and -0.02689 | Log2 reporter intensity values: PRPF8 ([3]; 1 at 1 μM): 0.961 and 0.941 and 0.9412 | Log2 reporter intensity values: PRPF8 ([3]; 1 at 4 μM): 0.9254 and 0.9448 and 0.8776 | Log2 reporter intensity values ([3]; 1_1 μM): -0.03926 and -0.05927 and -0.05901 | Log2 reporter intensity values ([3]; 1_4 μM): -0.07482 and -0.05547 and -0.1226 | Log2 reporter intensity values ([3]; 1 at 1 μM): -0.05742 and -0.08778 and -0.08738 | Log2 reporter intensity values ([3]; 1 at 4 μM): -0.1118 and -0.08196 and -0.1883 | Log2 reporter intensity values, COPS6 [4, 8]: -0.0741 and -0.01578 and 0.003018 | Log2 reporter intensity values, COPS6 [4, 9]: -0.08651 and -0.02819 and -0.009395 | Log2 reporter intensity values, COPS6 [4, 10]: 0.02899 and -0.02559 and 0.0005347 | Log2 reporter intensity values, COPS6 [4, 11]: 0.01657 and -0.038 and -0.01188 | Log2 reporter intensity values: COPS6 ([4]; 1 at 1 μM): 0.9418 and 0.9806 and 0.9935 | Log2 reporter intensity values: COPS6 ([4]; 1 at 4 μM): 1.012 and 0.974 and 0.9918 | Log2 t-test Difference ([4]; 1 - 1 μM): -0.08501 | Log2 t-test Difference ([4]; 1 - 4 μM): -0.05474 | Log2 reporter intensity values ([4]; 1_1 μM, DMSO subtracted): -0.05832 and -0.01946 and -0.006603 | Log2 reporter intensity values ([4]; 1_4 μM, DMSO subtracted): 0.01144 and -0.02611 and -0.008312 | Log2 reporter intensity values ([4]; 1 at 1 μM, DMSO subtracted): -0.08651 and -0.02819 and -0.009395 | Log2 reporter intensity values ([4]; 1 at 4 μM, DMSO subtracted): 0.01657 and -0.038 and -0.01188 | Log2 reporter intensity values: USP14 ([5]; 1 at 1 μM): 1.068 and 1.073 and 1.08 | Log2 reporter intensity values: USP14 ([5]; 1 at 4 μM): 1.026 and 1.014 and 1.052 | Log2 reporter intensity values ([5]; 1_1 μM): 0.06753 and 0.073 and 0.0796 | Log2 reporter intensity values ([5]; 1_4 μM): 0.02617 and 0.01386 and 0.05174 | Log2 reporter intensity values ([5]; 1 at 1 μM): 0.09459 and 0.102 and 0.1108 | Log2 reporter intensity values ([5]; 1 at 4 μM): 0.03759 and 0.02017 and 0.07309 | Log2 reporter intensity values: PSMD14 ([6]; 1 at 1 μM): 1.038 and 0.9518 and 1.018 | Log2 reporter intensity values: PSMD14 ([6]; 1 at 4 μM): 1.04 and 0.9939 and 0.9281 | Log2 reporter intensity values ([6]; 1_1 μM): 0.0358 and -0.05091 and 0.01579 | Log2 reporter intensity values ([6]; 1_4 μM): 0.03701 and -0.008736 and -0.0746 | Log2 reporter intensity values ([6]; 1 at 1 μM): 0.05445 and -0.07134 and 0.02638 | Log2 reporter intensity values ([6]; 1 at 4 μM): 0.05612 and -0.008793 and -0.1077 | Log2 reporter intensity values: USP28 ([7]; 1 at 1 μM): 0.9959 and 0.8739 and 1.601 | Log2 reporter intensity values: USP28 ([7]; 1 at 4 μM): 1.351 and 1.583 and 1.105 | Log2 reporter intensity values ([7]; 1_1 μM): -0.04385 and -0.1658 and 0.561 | Log2 reporter intensity values ([7]; 1_4 μM): 0.3117 and 0.5434 and 0.06533 | Log2 reporter intensity values ([7]; 1 at 1 μM): -0.005982 and -0.1944 and 0.6787 | Log2 reporter intensity values ([7]; 1 at 4 μM): 0.4345 and 0.6627 and 0.1441

— paper PMC7366380, “Discovery of a Potent and Selective Covalent Inhibitor and Activity-Based Probe for the Deubiquitylating Enzyme UCHL1, with Antifibrotic Activity” (Journal of the American Chemical Society, 2020)
